Experimental data: patent US10668168B2, “Method for removing weakly bound functional moieties from cell targeting conjugates” (priority 2015, dated 2020)

Tested on: NBD-4Py-Lx-trastuzumab conjugate
Experiment: Stripping efficiency of S- and N-donors: released NBD label from trastuzumab conjugate
Format: physicochemical
Conditions: agent 10 mM final, 37 °C, 30 minutes stripping
Experimental: The percentage of released NBD label (excitation and emission wavelength of 485 nm and 535 nm, respectively) was determined spectrophotometrically. The conjugation mixture was precipitated with 2 volume equivalents acetonitrile followed by centrifugation of the formed suspension (5 minutes, 14K rpm). By measuring the fluorescence of the supernatant, the percentage of released NBD label was determined.
NBD-4Py-Lx-Cl (133 microliters, 5 mM in 20 mM NaCl, 20 equiv.) was added to a solution of trastuzumab, used in its commercial formulation, (238 microliters, 21 mg/ml) and HEPES buffer (12.3 microliters, pH 7.47, 20 mM final concentration). The mixture was placed in a THERMOMIXER® at 37° C. for 4 hours, followed by purification using a prewashed PD10 column which was eluted with 0.9% NaCl. The purified conjugate was incubated with PBS or the S and N-donors as listed above (10 mM final concentration) in a THERMOMIXER® at 37° C. for 30 minutes. With size exclusion chromatography conjugation was clearly observed. Furthermore no aggregation was observed. The NBD/mAb ratio of all the conjugates were between 4.0 and 4.2.
The percentage of the released NBD label was determined as described in Example B.

Structure (SMILES) | Released label (%)
N[C@@H](Cc1c[nH]cn1)C(=O)O [Histidine] | 5.9
N#C[S-].[K+] [KSCN, potassium thiocyanate] | 35.9
N[C@@H](CS)C(=O)O [L-cysteine] | 36.4
CSCC[C@H](NC(C)=O)C(=O)O [N-acetyl-1-methionine] | 12.2
O=S([O-])([O-])=S.[Na+].[Na+] [NaSTS, sodium thiosulfate] | 52.4
